From the supplement of paper PMC8149375

Experiments:
Conditions in all cases: treatment: drug + dasatinib (fixed dose, not stated); 5 days
769-P [1] = test: GI50 of drug in presence of dasatinib; higher = less potent
Experimental: (§1)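 Primary HTS combination arm: 8 RCC cell lines treated with 8 doses (up to 10 uM) of each library drug plus a fixed dose of dasatinib (dose not stated) for 5 days; viability read by CellTiter-Glo and normalised to DMSO. GI50 was fitted with XLfit, AUC is the area under the dose-response curve, and minimum viability is the lowest fraction of DMSO viability across doses.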

786-O [2] = test: as above
Experimental: as §1

A498 [3] = test: as above
Experimental: as §1

ACHN [4] = test: as above
Experimental: as §1

CAKI-1 [5] = test: as above
Experimental: as §1

SN12C [6] = test: as above
Experimental: as §1

TK-10 [7] = test: as above
Experimental: as §1

UO-31 [8] = test: as above
Experimental: as §1

769-P [9] = test: minimum viability across doses, drug + dasatinib, relative to DMSO (fraction); higher = less growth inhibition
Experimental: as §1

786-O [10] = test: as above
Experimental: as §1

A498 [11] = test: as above
Experimental: as §1

ACHN [12] = test: as above
Experimental: as §1

CAKI-1 [13] = test: as above
Experimental: as §1

SN12C [14] = test: as above
Experimental: as §1

TK-10 [15] = test: as above
Experimental: as §1

UO-31 [16] = test: as above
Experimental: as §1

769-P [17] = test: AUC of dose-response viability curve, drug + dasatinib, normalised to DMSO (arbitrary (AUC of normalised viability)); higher = less growth inhibition
Experimental: as §1

786-O [18] = test: as above
Experimental: as §1

A498 [19] = test: as above
Experimental: as §1

ACHN [20] = test: as above
Experimental: as §1

CAKI-1 [21] = test: as above
Experimental: as §1

SN12C [22] = test: as above
Experimental: as §1

TK-10 [23] = test: as above
Experimental: as §1

UO-31 [24] = test: as above
Experimental: as §1

| GI50 of drug (786-O [2]) [nM] | GI50 of drug (ACHN [4]) [nM] | SMILES | GI50 of drug (769-P [1]) [nM] | GI50 of drug (A498 [3]) [nM] | GI50 of drug (CAKI-1 [5]) [nM] | GI50 of drug (SN12C [6]) [nM] | GI50 of drug (TK-10 [7]) [nM] | GI50 of drug (UO-31 [8]) [nM] | minimum viability across doses (769-P [9]) | minimum viability across doses (786-O [10]) | minimum viability across doses (A498 [11]) | minimum viability across doses (ACHN [12]) | minimum viability across doses (CAKI-1 [13]) | minimum viability across doses (SN12C [14]) | minimum viability across doses (TK-10 [15]) | minimum viability across doses (UO-31 [16]) | AUC of dose-response viability curve (769-P [17]) | AUC of dose-response viability curve (786-O [18]) | AUC of dose-response viability curve (A498 [19]) | AUC of dose-response viability curve (ACHN [20]) | AUC of dose-response viability curve (CAKI-1 [21]) | AUC of dose-response viability curve (SN12C [22]) | AUC of dose-response viability curve (TK-10 [23]) | AUC of dose-response viability curve (UO-31 [24]) |
| --- | --- | --- | --- | --- | --- | --- | --- | --- | --- | --- | --- | --- | --- | --- | --- | --- | --- | --- | --- | --- | --- | --- | --- | --- |
| 878 | 72.3 | C=CC(=O)Nc1cccc(Oc2nc(Nc3ccc(N4CCN(C)CC4)cc3)ncc2Cl)c1 [WZ3146] + Cc1nc(Nc2ncc(C(=O)Nc3c(C)cccc3Cl)s2)cc(N2CCN(CCO)CC2)n1 [dasatinib] | 523 | 3060 | 345 | 997 | 373 | 553 | 0.056 | 0.0305 | 0.301 | 0.034 | 0.00112 | 0.0852 | 0.0372 | 0.00923 | 1.85 | 1.88 | 2.76 | 1.21 | 1.47 | 1.92 | 1.76 | 2.32 |
| 1480 | 127 | C=CC(=O)Nc1cccc(Sc2nc(Nc3ccc(N4CCN(C)CC4)cc3)ncc2Cl)c1 [WZ8040] + Cc1nc(Nc2ncc(C(=O)Nc3c(C)cccc3Cl)s2)cc(N2CCN(CCO)CC2)n1 [dasatinib] | 1160 | 8300 | 1650 | 3880 | 652 | 2340 | 0.0198 | 0.00713 | 0.113 | 0.00268 | 0.00162 | 0.00446 | 0.0196 | 0.0164 | 2.02 | 2.05 | 3.23 | 1.5 | 1.96 | 2.18 | 1.96 | 2.72 |
| > 10000 | > 10000 | Cc1ccc(S(=O)(=O)Nc2nc3ccccc3nc2Nc2ccc3nsnc3c2)cc1 [XL147] + Cc1nc(Nc2ncc(C(=O)Nc3c(C)cccc3Cl)s2)cc(N2CCN(CCO)CC2)n1 [dasatinib] | > 10000 | > 10000 | > 10000 | > 10000 | > 10000 | > 10000 | 0.634 | 0.642 | 0.924 | 0.551 | 0.764 | 0.651 | 0.743 | 0.909 | 2.42 | 2.67 | 3.43 | 2.12 | 2.82 | 2.42 | 2.87 | 3.44 |
| 29.5 | 267 | COc1cc2nccc(Oc3ccc(NC(=O)C4(C(=O)Nc5ccc(F)cc5)CC4)cc3)c2cc1OC [XL-184 free base (Cabozantinib)] + Cc1nc(Nc2ncc(C(=O)Nc3c(C)cccc3Cl)s2)cc(N2CCN(CCO)CC2)n1 [dasatinib] | 2000 | 8990 | 193 | 915 | 2770 | 1840 | 0.135 | 0.25 | 0.442 | 0.0617 | 0.0187 | 0.213 | 0.136 | 0.0162 | 2.07 | 2.2 | 3.34 | 1.6 | 1.76 | 2.07 | 2.33 | 2.75 |
| > 10000 | 5.43 | COCC[n+]1c2c(n(Cc3cnccn3)c1C)C(=O)c1ccccc1C2=O [YM155] + Cc1nc(Nc2ncc(C(=O)Nc3c(C)cccc3Cl)s2)cc(N2CCN(CCO)CC2)n1 [dasatinib] | 10.7 | 8.38 | 4.86 | 8.39 | 14.4 | 45 | 0.00674 | 0.00497 | 0.00896 | 0.00126 | 0.00438 | 0.00231 | 0.0206 | 0.00698 | 0.63 | 0.302 | 0.476 | 0.479 | 0.385 | 0.503 | 0.933 | 1.3 |
| 118 | 102 | FC(F)c1nc2ccccc2n1-c1nc(N2CCOCC2)nc(N2CCOCC2)n1 [ZSTK474] + Cc1nc(Nc2ncc(C(=O)Nc3c(C)cccc3Cl)s2)cc(N2CCN(CCO)CC2)n1 [dasatinib] | 169 | 1090 | 44.5 | 420 | 328 | 194 | 0.0686 | 0.00535 | 0.0549 | 0.0709 | 0.0415 | 0.159 | 0.115 | 0.00787 | 1.61 | 1.61 | 2.35 | 1.45 | 1.37 | 1.99 | 1.97 | 1.73 |
| < 3 | 3240 | O=C(O)c1ccc2c(c1)nc(Nc1cccc(Cl)c1)c1ccncc12 [cx-4945 (Silmitasertib)] + Cc1nc(Nc2ncc(C(=O)Nc3c(C)cccc3Cl)s2)cc(N2CCN(CCO)CC2)n1 [dasatinib] | > 10000 | > 10000 | 1270 | > 10000 | > 10000 | > 10000 | 0.595 | 0.313 | 0.47 | 0.169 | 0.033 | 0.642 | 0.645 | 0.865 | 2.44 | 1.99 | 2.87 | 2.01 | 2.12 | 2.52 | 2.54 | 4.08 |

| SMILES | GI50 of drug (786-O [2]) [nM] | GI50 of drug (ACHN [4]) [nM] | GI50 of drug (769-P [1]) [nM] | GI50 of drug (A498 [3]) [nM] | GI50 of drug (CAKI-1 [5]) [nM] | GI50 of drug (SN12C [6]) [nM] | GI50 of drug (TK-10 [7]) [nM] | GI50 of drug (UO-31 [8]) [nM] | minimum viability across doses (769-P [9]) | minimum viability across doses (786-O [10]) | minimum viability across doses (A498 [11]) | minimum viability across doses (ACHN [12]) | minimum viability across doses (CAKI-1 [13]) | minimum viability across doses (SN12C [14]) | minimum viability across doses (TK-10 [15]) | minimum viability across doses (UO-31 [16]) | AUC of dose-response viability curve (769-P [17]) | AUC of dose-response viability curve (786-O [18]) | AUC of dose-response viability curve (A498 [19]) | AUC of dose-response viability curve (ACHN [20]) | AUC of dose-response viability curve (CAKI-1 [21]) | AUC of dose-response viability curve (SN12C [22]) | AUC of dose-response viability curve (TK-10 [23]) | AUC of dose-response viability curve (UO-31 [24]) |
| --- | --- | --- | --- | --- | --- | --- | --- | --- | --- | --- | --- | --- | --- | --- | --- | --- | --- | --- | --- | --- | --- | --- | --- | --- |
| COC[C@H]1OC(=O)c2coc3c2[C@@]1(C)C1=C(C3=O)[C@@H]2CCC(=O)[C@@]2(C)C[C@@H]1OC(C)=O [Wortmannin] + Cc1nc(Nc2ncc(C(=O)Nc3c(C)cccc3Cl)s2)cc(N2CCN(CCO)CC2)n1 [dasatinib] | 32.5 | 41.4 | > 10000 | 84.8 | 15.8 | 53.4 | > 10000 | > 10000 | 0.487 | 0.00996 | 0.153 | 0.425 | 0.123 | 0.342 | 0.633 | 0.688 | 2.25 | 1.62 | 2.76 | 1.87 | 1.38 | 2.16 | 2.46 | 2.3 |
